The target in the test is T1, Tyrosine-protein kinase Tec (Homo sapiens, UniProt P42680).
T1 sequence (P42680 whole entry): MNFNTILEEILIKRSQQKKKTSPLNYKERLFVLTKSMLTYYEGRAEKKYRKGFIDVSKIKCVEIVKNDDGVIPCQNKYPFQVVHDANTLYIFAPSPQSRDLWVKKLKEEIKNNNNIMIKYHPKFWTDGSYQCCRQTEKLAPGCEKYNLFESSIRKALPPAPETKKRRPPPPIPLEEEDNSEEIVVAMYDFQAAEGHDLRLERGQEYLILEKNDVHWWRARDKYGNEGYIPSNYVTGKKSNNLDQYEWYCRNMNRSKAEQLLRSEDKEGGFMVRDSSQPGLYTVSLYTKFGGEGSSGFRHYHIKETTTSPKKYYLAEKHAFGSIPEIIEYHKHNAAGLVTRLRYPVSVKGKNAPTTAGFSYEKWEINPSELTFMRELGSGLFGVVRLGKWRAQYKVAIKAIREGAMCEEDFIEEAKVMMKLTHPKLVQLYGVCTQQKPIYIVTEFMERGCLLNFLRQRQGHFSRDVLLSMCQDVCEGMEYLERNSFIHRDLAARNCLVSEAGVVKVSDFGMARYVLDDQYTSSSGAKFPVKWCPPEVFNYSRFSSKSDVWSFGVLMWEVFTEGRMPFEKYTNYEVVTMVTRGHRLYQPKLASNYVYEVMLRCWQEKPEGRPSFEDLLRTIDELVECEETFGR
In words: Lanthscreen Eu Kinase Binding Assay : Lanthscreen Eu Kinase Binding assay […] is performed as described above for BTK except that 1 nM human recombinant full length TEC (His-tagged) kinase and 1 nM Alexa Fluor647-labeled Kinase Tracer #178 were used instead.Representative compounds of the present invention are assessed for inhibition of BTK, BMX, and TXK measuring phosphorylation of a ….

By IC50 is commonly meant the concentration needed to halve the response being measured.

SMILES strings stand for the structures.

Take `CC#CC(=O)N1CC[C@]2(C1)C[C@H](n1nc(-c3cnn(Cc4cccc(C(F)(F)F)c4Cl)c3)c(C(N)=O)c1N)C2`: the IC50 was determined as 45 nM.

Take `CC#CC(=O)N1CC[C@]2(C1)C[C@H](n1nc(-c3cnn(Cc4cc(C(F)(F)F)ccc4OC)c3)c(C(N)=O)c1N)C2`: the IC50 came out at 1200 nM.

Regarding `CC#CC(=O)N1CC[C@]2(C1)C[C@H](n1nc(-c3cnn(Cc4cc(C(F)(F)F)ccc4Cl)c3)c(C(N)=O)c1N)C2`, the IC50 came to 130 nM.

Regarding `CC#CC(=O)N1CC[C@]2(C1)C[C@H](n1nc(-c3cnn(Cc4ccc(Cl)c(C(F)(F)F)c4)c3)c(C(N)=O)c1N)C2`, the concentration for half-maximal inhibition (IC50) worked out at 38 nM.

Source of the values: ChEMBL document CHEMBL5727042, “Heteroaromatic compounds as BTK inhibitors” (2018).
